Test results from patent publication US8399436B2, “N-pyrazolyl carboxamides as CRAC channel inhibitors” (Glaxo Group Limited, priority 2009, dated 2013).
Structures can show the parent of a compound that is named as a salt.

Molecular target: ICRAC current (calcium release activated calcium channel) (Homo sapiens, UniProt Q96D31)
Type: cell-based
Conditions: Jurkat E6-1 cells; at a final assay concentration of 15 μM
Description: This ICRAC assay uses the SERCA inhibitor thapsigargin to produce calcium depletion and activate an ICRAC current. […] Changes in intracellular calcium levels are determined by the inclusion of the calcium sensitive fluorescent dye Fluo-4 and the use of the FLIPR detection system. Inhibitors of ICRAC would be expected to decrease the calcium influx upon calcium add-back, thus reducing fluorescent signal.
Jurkat E6-1 is an established immortalised T lymphocyte cell line previously shown to express a functional ICRAC current. Jurkat cells grow in suspension, are cultured in DMEM+10% FBS, maintained in T175 flasks at 37° C./5% CO2, and are subcultured twice a week with either 1:10-1:20 splits. 1 confluent T175 yields 100 ml of approximately 2×10^6 cells/ml.
Loading buffer contains; NaCl 145 mM, KCl 2.5 mM, HEPES 10 mM, Glucose 10 mM, MgCl2 1.2 mM, made up with water, then pH adjusted to 7.4 using NaOH 1 M. Finally Fluo-4AM & brilliant black are added to give a final assay concentration of 2 μM and 250 μM respectively.
The required seeding density for a 384 plate is 20,000 cells per well. […] Plates are then transferred to the FLIPR which initially measures baseline fluorescence, followed by any increase in fluorescence evoked by the online addition of a 6 mM (1.2 mM FAC) calcium solution. […]

Chain of ICRAC current (calcium release activated calcium channel) (Q96D31 whole entry): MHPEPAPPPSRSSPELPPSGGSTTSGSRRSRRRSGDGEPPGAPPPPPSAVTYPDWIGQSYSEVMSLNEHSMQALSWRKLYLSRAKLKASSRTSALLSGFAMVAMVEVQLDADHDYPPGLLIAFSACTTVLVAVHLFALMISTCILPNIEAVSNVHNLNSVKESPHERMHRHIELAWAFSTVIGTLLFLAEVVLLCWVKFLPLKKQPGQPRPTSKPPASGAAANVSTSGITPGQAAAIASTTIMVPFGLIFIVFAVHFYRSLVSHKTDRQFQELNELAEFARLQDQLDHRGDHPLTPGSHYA
Chain of ICRAC current (calcium release activated calcium channel) (Q13586 23-685, further chain): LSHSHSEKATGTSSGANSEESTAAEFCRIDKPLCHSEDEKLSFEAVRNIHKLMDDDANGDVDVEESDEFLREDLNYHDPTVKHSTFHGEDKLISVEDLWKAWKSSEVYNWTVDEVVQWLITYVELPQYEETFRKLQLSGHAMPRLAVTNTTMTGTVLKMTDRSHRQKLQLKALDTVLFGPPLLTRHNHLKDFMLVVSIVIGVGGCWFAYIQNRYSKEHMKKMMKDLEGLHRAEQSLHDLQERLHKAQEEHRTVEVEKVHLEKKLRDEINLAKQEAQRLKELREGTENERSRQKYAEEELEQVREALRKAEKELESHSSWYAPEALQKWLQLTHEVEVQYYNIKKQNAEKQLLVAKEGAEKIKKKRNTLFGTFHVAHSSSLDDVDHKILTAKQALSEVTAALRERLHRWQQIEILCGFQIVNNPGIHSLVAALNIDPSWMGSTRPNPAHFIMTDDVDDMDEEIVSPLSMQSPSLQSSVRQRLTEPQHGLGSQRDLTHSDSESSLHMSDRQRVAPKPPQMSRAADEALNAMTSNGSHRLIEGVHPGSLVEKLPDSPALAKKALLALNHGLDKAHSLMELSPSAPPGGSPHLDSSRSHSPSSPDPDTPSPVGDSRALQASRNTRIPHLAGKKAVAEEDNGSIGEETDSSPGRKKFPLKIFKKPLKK

Compound: O=C(Nc1ccn(Cc2ccc(OP(=O)([O-])[O-])cc2C(F)(F)F)n1)c1c(F)cccc1F.[Na+].[Na+] [Example 186, 4-[(3-{[(2,6-Difluorophenyl)carbonyl]amino}-1H-pyrazol-1-yl)methyl]-3-(trifluoromethyl)phenyl dihydrogen phosphate disodium salt]
- pIC50: 4.9

Compound: O=C(c1c(F)cccc1F)N(COP(=O)(O)O)c1ccn(Cc2c(F)cccc2C(F)(F)F)n1 [Example 187, [[(2,6-Difluorophenyl)carbonyl](1-{[2-fluoro-6-(trifluoromethyl)phenyl]methyl}-1H-pyrazol-3-yl)amino]methyl dihydrogen phosphate disodium salt]
- pIC50: < 4.8
